Assays:
[1] = tested on: Staphylococcus aureus USA300 LAC; conditions: liquid culture, static growth, 37° C., 20 hours, 96 well microtiter plates
Experimental: (§1) Salmonella enterica Serovar typhimurium LT2, Staphylococcus aureus USA300 LAC, and Streptococcus mutans Clark (ATCC) were used for the experiment. […] S. enterica and S. aureus were cultured in Muller Hinton media (Sigma-Aldrich) and S. mutans was cultured in Reinforced Clostridial Media (Oxoid).
(§2) Single bacterial colonies were inoculated into 2 mL of medium in 10 mL capacity culture tubes. Inoculated cultures of S. aureus and S. enterica were grown aerobically at 37° C. with shaking at 200 rpm for 24 hours. S. mutans was cultured statically for 48 hours. […] MICs were determined in cultures grown in 96 well microtiter plates. 100 μL of the standardized culture was sub-cultured into wells containing 100 μL of medium containing antimicrobial compound. Control wells containing 200 μL of media only or media compound were used to standardize the data. The microtiter plates were aerobically incubated statically at 37° C. for 20 hours. Culture optical densities (A600) were determined using Biotek® EPOCH 2 microplate reader.
(§3) The ability of Zn and (CP)2ZnCl4 to inhibit the growth of bacterial pathogens was examined. The minimal inhibitory concentrations of Zn and (CP)2ZnCl4 were determined in liquid culture after static growth.

[2] = tested on: Salmonella enterica Serovar typhimurium LT2; conditions: liquid culture, static growth, 37° C., 20 hours, 96 well microtiter plates
Experimental: as §1, §2, §3

[3] = tested on: Streptococcus mutans Clark (ATCC); conditions: for minimal inhibitory concentration S. mutans: liquid culture, static growth, 37° C., 20 hours, 96 well microtiter plates
Experimental: as §1, §2, §3

| Compound | minimal inhibitory concentration S. aureus [1] | minimal inhibitory concentration S. enterica [2] | minimal inhibitory concentration S. mutans [3] | antibacterial activity against S. mutans, compared to CPC ([3]; result in words, comparison with CPC) | MIC for Streptococcus mutans compared with zinc chloride or CPC ([3]; result in words, comparison with zinc chloride or CPC) |
| --- | --- | --- | --- | --- | --- |
| CCCCCCCCCCCCCCCC[n+]1ccccc1.CCCCCCCCCCCCCCCC[n+]1ccccc1.[Cl][Zn-2]([Cl])([Cl])[Cl] [(CP)2ZnCl4, cetylpyridinium tetrachlorozincate] | 6 µg/mL | 60 µg/mL | 6 µg/mL | slight improvement | lower than that of zinc chloride or CPC |
| [Cl-].[Cl-].[Zn+2] [ZnCl2, zinc chloride, reference compound] |  | ~300 µg/mL | ~65 µg/mL |  |  |
